PMC8741796, “In vitro characterization of a small molecule PD-1 inhibitor that targets the PD-l/PD-L1 interaction” (Scientific Reports, 2022)
“Also recorded” adds a separate entry of the source. Where two headings read alike, the source gives them in different places.

Legend:
Jurkat cells = assay: WST-1 cell cytotoxicity assay in Jurkat cells; type: cell-based; conditions: WST-1, 48 h
Experimental: (§1) The WST-1 cytotoxicity assay evaluated cytotoxicity in effector cells (Jurkat cells) (Fig. 2A) and target cells (HEK293 cells) (Fig. 2B). The OD value that resulted from WST-1 reagent dye formation strongly correlated with the number of metabolically live cells. To further characterize cytotoxicity tolerance, CC50 (cytotoxic concentration 50%) values were calculated and are shown in Table 1. […] Doses of compounds in the screening assay were based on the CC50 values of each cell line. Thus, screening concentrations of CH-1, -2, -3, -4 and -6 were 0, 10, 20 and 40 µM, respectively, while the concentrations for CH-5 were 0, 0.1, 1 and 10 µM, respectively. To ensure reliable screening, anti-PD-1 neutralizing antibody (Cat No. 71120) was used as a positive control for inhibiting the interaction of PD-1/PD-L1, while HEK293 cells transfected with control plasmid served as the negative control. These groups were treated with increasing concentrations of anti-PD-1 neutralizing antibody (0, 0.1, 1 and 10 µg/mL) and luminescence intensity was determined after treatments.
(§2) Figure 2 In vitro screening of leading compounds. (A) Jurkat cells and (B) HEK293 cells were treated with six leading compounds to test cytotoxicity. Cells were seeded into 96-well plates at a density of 7 × 10^3/well and incubated overnight. The cells were then treated for 48 h with different concentrations (0, 10, 20, 40, and 80 µM) of the six CH compounds. At 48 h, cell cytotoxicity WST-1 assays were performed. The x-axis indicates treatment concentrations, while the y-axis indicates the percentage of cell viability (each absolute absorbance value [abs. 450 nm–630 nm] was normalized with the controls). (C) The capacity of the CH compounds to inhibit the PD-1/PD-L1 interaction was tested using the bioluminescent cell-based assay. Effector cells (growth-arrested reporter Jurkat cells) were preincubated with anti-PD-1 neutralizing antibody (Cat No. 71120), DMSO, or each of the CH compounds. The activity of luciferase was determined as an indicator of cell activation. The graphs present mean ± SD (standard deviation) values from at least three independent experiments. (D) After overnight incubation, KG-1 cells were treated for 48 h with increasing concentrations of the CH compounds (0, 10, 20, 40, or 80 µM). (E) KG-1 cells were incubated with CH compounds prior to sPD-L1-Atto staining. Flow cytometry determined binding of the Ni–NTA-labeled sPD-L1 (PD-L1-Atto) complex to KG-1 cells expressing PD-1. Cell staining (Atto-subset) was blocked in the presence of the CH compounds. The experimental groups are indicated as (a) KG-1/PBS, (b) KG-1/Atto dye, (c) KG-1/sPD-L1/Atto dye, (d) KG-1/sPD-L1/Atto dye/CH-1, (e) KG-1/sPD-L1/Atto dye/CH-2, (f) KG-1/sPD-L1/Atto dye/CH-3, (g) KG-1/sPD-L1/Atto dye/CH-4, (h) KG-1/sPD-L1/Atto dye/CH-5, (i) KG-1/sPD-L1/Atto dye/CH6. (F) The cell staining data from (E) are normalized and quantified as relative MFI values. (G) At 48 h, PD-1 protein (20 µg/well) expression was determined by Western blotting. The bar graphs present the mean ± SD (standard deviation) values from three independent experiments. *p < 0.05, **p < 0.01, ***p < 0.001. TEXT PRINTED IN THE PICTURE: (E) d.: 33.1 % | (E) e.: 38.1 % | (E) f.: 52.9 % | (E) g.: 4.01 % | (E) h.: 38.35 % | (E) i.: 49.35 % DOUBTS OF THE COPYIST ABOUT THIS PICTURE: Panel E: the picture labels the histograms only with the sub-panel letters a.-i.; it prints no compound name or measure beside the percentages, so the letters are used as labels. / Panel E: sub-panels a. (3.52 %), b. (4.59 %) and c. (53.9 %) were left out because they appear to be controls without a test compound. / Panel E, small print: d. 33.1 % (3 or 8), e. 38.1 % (8 or 3), f. 52.9 % (9 or 8), h. 38.35 % (3, 5 and 8 uncertain) and i. 49.35 % (9, 3 and 5 uncertain) are best readings.
(§3) Figure 3 In vitro inhibition by the CH-4 analog of the PD-1/PD-L1 interaction. […]

KG-1 cells = assay: WST-1 cell cytotoxicity assay in KG-1 cells; type: cell-based; conditions: 10 µM, 48 h
Experimental: as §2
Using the WST-1 assay, CH compound cytotoxicities were quantified at different concentrations in KG-1 cells (Fig. 2D). […] The data indicated an appropriate concentration for testing inhibition of the PD-1/sPD-L1 interaction by flow cytometry. To clarify the inhibitory qualities of CH compounds in sPD-L1/PD-1 interactions, His-tagged sPD-L1 recombinant protein was labeled with Ni–NTA-conjugated fluorescent dye (Atto) and flow cytometry analysis was performed (Fig. 2E). […] When KG-1 cells were treated with increasing concentrations of CH-4, PD-1 expression was unchanged (Fig. 2G).
The WST-1 assay assessed cell cytotoxicity. Briefly, cells were seeded in 96-well plates at a density of […] (100 μL/well) with 10% FBS in the medium and incubated for 48 h, before undergoing a further 1 h of incubation at 37 °C with 10 μL of WST-1 solution added to each well. Cell viability was quantified by colormetric detection using an ELISA plate reader (Beckman Coulter PARADIGM Detection Platform; Beckman Coulter, IL, USA) at absorbance values of 450 nm and 690 nm to generate an optical density proportional to the relative abundance of live cells in the wells.

HEK293 cells = assay: WST-1 cell cytotoxicity assay in HEK293 cells; type: cell-based; conditions: WST-1, 48 h
Experimental: as §1, §2, §3

PD-1/PD-L1 interaction = target: T1, PD-1/PD-L1 interaction (Homo sapiens, UniProt Q15116); assay: Cell-based PD-1/PD-L1 checkpoint assay (bioluminescent NFAT-luciferase, Jurkat effector cells / PD-L1/TCR HEK293 target cells); conditions: CH compounds 0, 10, 20, 40 µM; CH-4 effect at 10 µM
T1 construct: expressed in transfected cells
Excerpt: Protein docking analysis identified six potential SMIs targeting PD-1: CH-1, CH-2, CH-3, CH-4, CH-5, and CH-6. To evaluate their capacity to inhibit the PD-1/PD-L1 interaction, we used a cell-based PD-1/PD-L1 inhibitor screening approach consisting of a bioluminescent cell-based assay containing two main components; genetically manipulated effector cells (growth-arrested reporter Jurkat cells) and engineered PD-L1/TCR-overexpressed HEK293 cells (target cells). In this assay, PD-1-expressed effector cells were genetically manipulated with the nuclear factor of activated T-cells (NFAT)-associated luciferase reporter gene. We used HEK293 cells for transient overexpression of PD-L1 and an engineered TCR activator as target cells. When the two cells were co-cultivated, the PD-1/PD-L1 interaction prevented TCR activation and suppressed NFAT-induced luciferase activity.
The WST-1 cytotoxicity assay evaluated cytotoxicity in effector cells (Jurkat cells) (Fig. 2A) and target cells (HEK293 cells) (Fig. 2B). The OD value that resulted from WST-1 reagent dye formation strongly correlated with the number of metabolically live cells. […] These groups were treated with increasing concentrations of anti-PD-1 neutralizing antibody (0, 0.1, 1 and 10 µg/mL) and luminescence intensity was determined after treatments. […]

PD-1 protein = assay: Western blotting of PD-1 protein expression in KG-1 cells; type: cell-based; conditions: increasing concentrations, 48 h
Experimental: (§4) Figure 2 In vitro screening of leading compounds. (A) Jurkat cells and (B) HEK293 cells were treated with six leading compounds to test cytotoxicity. Cells were seeded into 96-well plates at a density of 7 × 10^3/well and incubated overnight. The cells were then treated for 48 h with different concentrations (0, 10, 20, 40, and 80 µM) of the six CH compounds. At 48 h, cell cytotoxicity WST-1 assays were performed. The x-axis indicates treatment concentrations, while the y-axis indicates the percentage of cell viability (each absolute absorbance value [abs. 450 nm–630 nm] was normalized with the controls). […] The activity of luciferase was determined as an indicator of cell activation. […] Flow cytometry determined binding of the Ni–NTA-labeled sPD-L1 (PD-L1-Atto) complex to KG-1 cells expressing PD-1. […] (F) The cell staining data from (E) are normalized and quantified as relative MFI values. (G) At 48 h, PD-1 protein (20 µg/well) expression was determined by Western blotting. […] 49.35 % (9, 3 and 5 uncertain) are best readings.
Figure 3 In vitro inhibition by the CH-4 analog of the PD-1/PD-L1 interaction. […] The x-axis indicates treatment concentrations, while the y-axis indicates the percentage of cell viability (each absolute absorbance value [abs. 450 nm–630 nm] was normalized with the controls). […]

[1] = WST-1 cell cytotoxicity assay in Jurkat cells; type: cell-based; conditions: human, Jurkat cells, WST-1, 48 h
Experimental: as §1, §2, §3

PD-1/sPD-L1 interaction = target: T2, PD-1/sPD-L1 interaction (Homo sapiens, UniProt Q15116); assay: Flow cytometry of sPD-L1-Atto binding to KG-1 cells expressing PD-1; type: cell-based; conditions: Ni-NTA-labeled sPD-L1
T2 construct: endogenous in cells; host or cells: KG-1 cells (ATCC)
Experimental: as §4, with “controls). (C) The capacity of the CH compounds to inhibit the PD-1/PD-L1 interaction was tested using the bioluminescent cell-based assay.” for “controls).”
Using the WST-1 assay, CH compound cytotoxicities were quantified at different concentrations in KG-1 cells (Fig. 2D). […]

[2] = WST-1 cell cytotoxicity assay in HEK293 cells; type: cell-based; conditions: human, HEK293 cells, WST-1, 48 h
Experimental: as §1, §2, §3

[3] = mean ± SD, Table 1, read-out: CC50 Jurkat cells
[4] = read-out: CC50 Jurkat cells (tolerance)
[5] = mean ± SD, Table 1, read-out: CC50 293 cells
[6] = read-out: CC50 HEK293 cells (tolerance)

T1 sequence (Q15116 25-288): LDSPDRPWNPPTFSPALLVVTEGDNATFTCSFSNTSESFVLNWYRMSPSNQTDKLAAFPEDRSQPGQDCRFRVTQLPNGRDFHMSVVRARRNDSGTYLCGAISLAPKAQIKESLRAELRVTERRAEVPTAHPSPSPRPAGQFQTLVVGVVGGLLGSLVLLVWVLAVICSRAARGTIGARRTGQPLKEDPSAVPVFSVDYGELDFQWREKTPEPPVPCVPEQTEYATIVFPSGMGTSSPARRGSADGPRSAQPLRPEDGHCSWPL
T2 sequence (Q15116 25-288): as above

Row | Structure (SMILES) | CC50 (Jurkat cells; [3]) | CC50 (Jurkat cells; [4]) | cytotoxicity to KG-1 cells (KG-1 cells) | CC50 (HEK293 cells; [5]) | CC50 (HEK293 cells; [6]) | other results
1 | Cc1ccccc1NC(=O)C(=O)CC(=O)c1sc(Nc2ccccc2[N+](=O)[O-])nc1C [CH-1] | 133 ± 5.1 µM | > 20 µM | low cytotoxicity | 46.9 ± 10.2 µM | > 20 µM | –
2 | COc1c(C(=O)Nc2ccc(C3=NCCN3)cc2)cccc1C(=O)Nc1ccc(C2=NCCN2)cc1 [CH-2] | 94.9 ± 1.97 µM | > 20 µM | low cytotoxicity | 151 ± 32.5 µM | > 20 µM | –
3 | COc1cc(-c2ccc(NC(=O)CSC(N)=O)c(OC)c2)ccc1NC(=O)CSC(N)=O [CH-3] | 212 ± 46.5 µM | > 20 µM | low cytotoxicity | 78.1 ± 4.95 µM | > 20 µM | –
4 | O=C(Nc1ccccc1)c1cc2ccccc2oc1=O [CH-4.9] | – | – | – | – | – | inhibitory capacity for the PD-1/PD-L1 interaction (luciferase activity) (PD-1/PD-L1 interaction): failed to inhibit; cytotoxicity in Jurkat cells (Jurkat cells; up to 100 µM, Fig. 3A): neither analog showed any evidence of cytotoxicity; concentration associated with increasing cytotoxicity in HEK293 cells (HEK293 cells; Fig. 3A): exceeding 20 µM
5 | COc1ccc(N=Nc2ccc3oc(=O)c(C(=O)Nc4ccc(OC)cc4)cc3c2)cc1 [CH-4] | – | – | low cytotoxicity | – | – | PD-1 protein expression (PD-1 protein): unchanged; inhibitory capacity for the PD-1/PD-L1 interaction (luciferase activity) (PD-1/PD-L1 interaction): potential inhibitory capacity; CC50 at 48 h [1, 3]: 30.3 ± 1.3 µM; CC50 at 48 h [1, 4]: > 20 µM; inhibition of sPD-L1 binding to KG-1 cells (shift in staining/fluorescence intensity) (PD-1/sPD-L1 interaction): slight, yet significant, shift in staining intensity; also recorded: significantly decreased the shift in fluorescence intensity; CC50 at 48 h [2, 5]: 18.9 ± 1.53 µM; CC50 at 48 h [2, 6]: > 20 µM
6 | O=c1c(/C=C/c2c(O)ccc3ccccc23)nnc2sc(-c3cccc([N+](=O)[O-])c3)nn12 [CH-5] | 10.6 ± 2.67 µM | – | sensitized | 8.52 ± 1.74 µM | – | –
7 | C/C(=N\NC(=O)CCSCCC(=O)N/N=C(\C)c1ccccc1)c1ccccc1 [CH-6] | 103.4 ± 0.94 µM | > 20 µM | low cytotoxicity | 113 ± 26.1 µM | > 20 µM | –
